Usually AC50 stands for the concentration at which the activity in the assay is half-maximal. A word on the IC50: it is the midpoint of a concentration-inhibition curve.

The nature of assay [1]: P. falciparum 3D7-ScDHODH growth inhibitors, dose response, SYBR Green, dry powder samples (AID 1159570).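 Also: parasite growth measured after 72 hours of compound exposure.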 Type of assay: functional, cell-based.
Assay [2] can be described thus: HepG2 cell cytotoxicity, dose response, cytotoxicity control, plate reader, dry powder samples (AID 1159569).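 Also: inhibitor potency with signal falling toward the positive control level.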 Type of assay: functional, cell-based.
Assay [3] can be described thus: P. falciparum Dd2 growth inhibitors, dose response, SYBR Green, cherry-picked samples (AID 1159567). Type of assay: functional, cell-based.
Assay [4] can be described thus: P. falciparum Dd2 growth inhibitors, dose response, SYBR Green, dry powder samples (AID 1159566).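 Also: potency for growth inhibition with lower SYBR green DNA signal.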 Type of assay: functional, cell-based.
Assay [5] is described as follows: HepG2 cell cytotoxicity, dose response, cytotoxicity control, cherry-picked samples (AID 1159577). It is filed as functional, cell-based.
Assay [6] is described as follows: P. falciparum ATP4 D1247Y mutant growth inhibitors, dose response, NITD609-resistant line, SYBR Green, dry powder (AID 1159571).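 Also: parasites synchronized at ring stage by sorbitol before testing.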 It is filed as functional, cell-based.
Assay [7] has as its target T1, Mannose-6-phosphate isomerase (Homo sapiens, UniProt P34949).
T1 sequence (P34949 whole entry): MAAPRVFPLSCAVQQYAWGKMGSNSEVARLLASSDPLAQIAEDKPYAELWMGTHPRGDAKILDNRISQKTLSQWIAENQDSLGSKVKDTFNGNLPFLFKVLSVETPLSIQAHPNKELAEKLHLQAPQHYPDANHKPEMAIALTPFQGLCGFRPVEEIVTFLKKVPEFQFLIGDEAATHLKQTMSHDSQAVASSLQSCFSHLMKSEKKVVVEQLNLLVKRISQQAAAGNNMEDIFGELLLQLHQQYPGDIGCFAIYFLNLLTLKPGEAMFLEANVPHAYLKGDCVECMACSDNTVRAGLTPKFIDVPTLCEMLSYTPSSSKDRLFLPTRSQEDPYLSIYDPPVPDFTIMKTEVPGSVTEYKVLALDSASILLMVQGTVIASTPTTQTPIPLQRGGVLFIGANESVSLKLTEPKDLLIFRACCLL
Put plainly: inhibitors of human PMI, primary screen, biochemical, fluorescence intensity, coupled assay (AID 1209).

In assay [8] the target is DNA dC->dU-editing enzyme APOBEC-3G (Homo sapiens, UniProt Q9HC16). As to the kind of experiment: Dose Response confirmation of small molecule APOBEC3G DNA Deaminase Inhibitors via a fluorescence-based single-stranded DNA deaminase assay. [Related pubchem assays (depositor defined):AID493012, AID493028]. It is filed as functional.
Assay [9] concerns the target T2, Epstein-Barr nuclear antigen 1 (Epstein-Barr virus (strain B95-8) (HHV-4) (Human herpesvirus 4), UniProt P03211).
T2 sequence (P03211 whole entry): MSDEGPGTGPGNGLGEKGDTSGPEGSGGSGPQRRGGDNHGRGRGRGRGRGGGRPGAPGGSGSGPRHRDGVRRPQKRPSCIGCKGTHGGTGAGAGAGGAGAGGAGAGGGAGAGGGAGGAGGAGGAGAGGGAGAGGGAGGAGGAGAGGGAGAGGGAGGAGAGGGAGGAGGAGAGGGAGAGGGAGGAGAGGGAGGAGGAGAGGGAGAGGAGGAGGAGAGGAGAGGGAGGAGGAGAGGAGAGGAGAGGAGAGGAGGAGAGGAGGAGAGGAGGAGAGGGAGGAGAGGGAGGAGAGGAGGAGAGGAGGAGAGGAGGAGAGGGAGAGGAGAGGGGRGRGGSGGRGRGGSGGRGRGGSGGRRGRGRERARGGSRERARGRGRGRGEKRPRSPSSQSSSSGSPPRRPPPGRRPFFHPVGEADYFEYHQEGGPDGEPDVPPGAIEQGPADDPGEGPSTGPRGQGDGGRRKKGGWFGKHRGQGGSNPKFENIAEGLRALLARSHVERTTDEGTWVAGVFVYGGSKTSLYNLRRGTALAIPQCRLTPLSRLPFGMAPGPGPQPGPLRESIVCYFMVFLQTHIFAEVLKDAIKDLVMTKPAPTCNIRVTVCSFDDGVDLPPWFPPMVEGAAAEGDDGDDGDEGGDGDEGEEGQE
As to the kind of experiment: EBNA-1 inhibitors, dose response, biochemical, fluorescence polarization, 1536-well (AID 2381).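 Also: fluorescence polarization of a Cy5 DNA probe bound by EBNA-1 protein.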 The arrangement: species or system human gammaherpesvirus 4. Background: In fluorescence polarisation assays a small probe gives low polarisation when free and higher when bound to something large.

In assay [10] the target is T3, Lytic switch protein BZLF1 (Epstein-Barr virus (strain B95-8) (HHV-4) (Human herpesvirus 4), UniProt P03206).
T3 sequence (P03206 whole entry): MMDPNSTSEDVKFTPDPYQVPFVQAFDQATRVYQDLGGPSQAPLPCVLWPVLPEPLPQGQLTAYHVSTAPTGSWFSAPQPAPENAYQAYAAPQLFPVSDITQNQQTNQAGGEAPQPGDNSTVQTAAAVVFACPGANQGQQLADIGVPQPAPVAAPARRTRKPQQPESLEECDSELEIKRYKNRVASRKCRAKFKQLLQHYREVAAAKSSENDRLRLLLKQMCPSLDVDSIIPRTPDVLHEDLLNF
Put plainly: EBV ZTA inhibitors, dose response, counter-screen for EBNA-1 inhibitor project, biochemical, fluorescence polarization, Epstein-Barr virus, 1536-well (AID 2377).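 Also: fluorescence polarization of Cy5-labelled ZRE DNA probe bound by purified Zta.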 The arrangement: species or system human gammaherpesvirus 4. (In general: The purpose of a counterscreen is to sort out artefacts and off-target activity.)

Assay [11] is described as follows: P. falciparum late gametocyte killing, dose response, luminescence (AID 1117278).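 Also: gametocytes exposed to compound for 24 hours.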 It is filed as functional, cell-based.
Assay [12] in a line: Jurkat T cell cytotoxicity, dose response, cytotoxicity control for P. falciparum gametocyte viability project, luminescence (AID 1117277).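 Also: potency reflects loss of cellular ATP meaning fewer viable cells.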 Type of assay: functional, cell-based.
Assay [13] addresses T4, Rac GTPase-activating protein 1 (Homo sapiens, UniProt Q9H0H5).
T4 sequence (Q9H0H5 whole entry): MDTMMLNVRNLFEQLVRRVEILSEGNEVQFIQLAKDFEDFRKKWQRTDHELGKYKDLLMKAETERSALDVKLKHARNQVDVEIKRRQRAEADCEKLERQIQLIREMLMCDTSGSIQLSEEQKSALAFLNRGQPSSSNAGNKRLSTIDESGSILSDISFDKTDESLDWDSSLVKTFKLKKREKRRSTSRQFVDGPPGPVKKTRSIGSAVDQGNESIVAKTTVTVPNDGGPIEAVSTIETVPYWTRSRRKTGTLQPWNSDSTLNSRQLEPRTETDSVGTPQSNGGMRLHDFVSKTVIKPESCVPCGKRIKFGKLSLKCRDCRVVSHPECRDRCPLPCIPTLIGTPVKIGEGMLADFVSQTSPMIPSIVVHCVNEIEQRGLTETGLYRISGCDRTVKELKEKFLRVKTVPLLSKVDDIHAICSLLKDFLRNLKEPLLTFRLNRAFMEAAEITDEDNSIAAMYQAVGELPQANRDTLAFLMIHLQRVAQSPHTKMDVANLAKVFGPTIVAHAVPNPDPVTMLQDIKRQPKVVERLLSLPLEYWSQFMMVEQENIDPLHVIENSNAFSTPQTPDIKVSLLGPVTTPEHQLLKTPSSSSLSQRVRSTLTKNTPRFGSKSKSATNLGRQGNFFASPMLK
Put plainly: MgcRacGAP GTPase-activating activity inhibitors, confirmation, biochemical, ADP Hunter fluorescence, primary and confirmatory (AID 624330). It is filed as functional.

The nature of assay [14]: Luminescence-based cell-based high throughput dose response assay to identify activators of the DAF-12 from the parasite S. stercoralis (ssDAF-12). It is filed as functional.
Assay [15] deals with T5, Oxysterols receptor LXR-beta (Homo sapiens, UniProt P55055).
T5 sequence (P55055 whole entry): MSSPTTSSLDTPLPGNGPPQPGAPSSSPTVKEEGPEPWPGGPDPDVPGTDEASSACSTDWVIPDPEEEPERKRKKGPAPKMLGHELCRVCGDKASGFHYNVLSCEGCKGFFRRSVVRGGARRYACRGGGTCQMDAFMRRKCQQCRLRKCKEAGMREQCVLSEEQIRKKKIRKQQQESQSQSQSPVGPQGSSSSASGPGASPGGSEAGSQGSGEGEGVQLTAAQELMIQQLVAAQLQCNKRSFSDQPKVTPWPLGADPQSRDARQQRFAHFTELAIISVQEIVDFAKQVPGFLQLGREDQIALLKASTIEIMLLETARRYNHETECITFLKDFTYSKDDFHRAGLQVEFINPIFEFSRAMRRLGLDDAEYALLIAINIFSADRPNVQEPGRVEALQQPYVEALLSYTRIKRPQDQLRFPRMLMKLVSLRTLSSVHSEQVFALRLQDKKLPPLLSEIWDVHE
Put plainly: LXR agonists, Gal4 luciferase reporter, dose response, counter-screen for ssDAF-12 agonist project, cell-based, luminescence, HEK293, S. stercoralis campaign (AID 720737). It is filed as functional. Conditions: read-out: IC50 (the source's name).

Assay [16] can be described thus: Luminescence Cell-Based Dose Confirmation HTS to Identify Activators of 5'UTR Stem-Loop Driven Alpha-Synuclein mRNA Translation in H4 Neuroglioblastoma Cells. [Related pubchem assays: 1829 (Project Summary), 1814 (Primary HTS)]. Type of assay: functional.
Assay [17] is described as follows: Luminescence Cell-Based Dose Response HTS to Identify Activators of Luciferase Translation or Activity in H4 […] Cells. [Related pubchem assays: 1829 (Project Summary), 1814 (Primary HTS)]. Type of assay: functional.
The test system of assay [18] is H4. Put plainly: Luminescence Cell-Based Dose Response HTS to Identify Activators of 5'UTR Stem-Loop Driven Prion Protein mRNA Translation in H4 Neuroglioblastoma Cells. [Related pubchem assays: 1829 (Project Summary), 1814 (Primary HTS)]. It is filed as functional. To be noted: Homo sapiens.
The nature of assay [19]: cytotoxicity in HPDE-C7 cells, cell-based, fluorescence, HTS (AID 430). It is filed as functional. Conditions: Homo sapiens.
Assay [20] can be described thus: cytotoxicity in KRAS-transformed pancreatic duct cells, primary screen, cell-based, fluorescence, HTS (AID 431).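 Also: cell line used: HPDE-C7K.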 It is filed as functional. Conditions: Homo sapiens.
The target in assay [21] is T1, Mannose-6-phosphate isomerase. As to the kind of experiment: human PMI inhibitors, high substrate, primary screen, biochemical, fluorescence intensity, high mannose 6-phosphate (AID 1220).

Active and inactive are the calls of the source.

Chain of DNA dC->dU-editing enzyme APOBEC-3G (Q9HC16 whole entry): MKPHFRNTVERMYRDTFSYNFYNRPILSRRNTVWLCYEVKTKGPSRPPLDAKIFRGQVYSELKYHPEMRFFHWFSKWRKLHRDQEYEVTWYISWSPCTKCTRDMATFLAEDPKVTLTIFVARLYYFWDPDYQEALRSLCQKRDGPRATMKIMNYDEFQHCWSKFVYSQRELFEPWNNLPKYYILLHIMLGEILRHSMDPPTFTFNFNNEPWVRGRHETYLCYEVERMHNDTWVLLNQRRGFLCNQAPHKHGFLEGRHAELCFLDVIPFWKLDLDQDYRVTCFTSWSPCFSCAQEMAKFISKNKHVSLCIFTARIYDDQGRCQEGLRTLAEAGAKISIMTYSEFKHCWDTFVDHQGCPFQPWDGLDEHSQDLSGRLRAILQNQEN

Turning to `COc1ccccc1CN1C[C@@H]2N[C@H](C1)[C@@H]2c1ccc(-c2cccnc2)cc1`, the concentration at half-maximal activity (AC50) in [1] was 3.2 µM (active); in assay [2], 29.6 µM (active); in assay [3] it was 2.1 µM (active); in assay [4], 1.35 µM (active); in assay [5] it was 28.5 µM (active); in [6], 1.78 µM (active).

Take `COc1ccc(Cc2nnc(S)n2N)cc1OC`: the IC50 in [7] was 31.9 µM (active); in assay [8], 17.8 µM (active).

Take `COc1ccc2c3c([nH]c2c1)[C@H](CO)N(C(=O)Nc1ccc(F)cc1)CC31CCN(S(=O)(=O)c2cccc(F)c2)CC1`: the concentration at half-maximal activity (AC50) in [1] was 1.22 µM (active); in [2], 22 µM (active); in assay [3], 0.883 µM (active); in assay [4], 0.751 µM (active); in [6], 0.103 µM (active).

Take `NC(=O)c1cc(-c2ccccc2)sc1NC(=O)Cc1ccc(S(=O)(=O)N2CCOCC2)s1`: the IC50 in [9] was > 5.47 µM (active); in assay [10], > 111 µM (not active).

On to `Cc1ccc(NC(=O)CCn2c(=S)oc3ccccc32)cc1`, for which the half-inhibitory concentration (IC50) in assay [9] was 14.2 µM (not active); in [10], > 111 µM (not active).

Turning to `COCC(=O)Nc1ccc(Br)cc1C`, the values for the IC50 in assay [11] and in assay [12] were > 109 µM (inactive) and > 83.3 µM (inactive), respectively.

Consider `Cc1ccc(/C=N/Nc2ccc(Cl)c(C(=O)O)c2)s1`, for which the figures for the IC50 in [13] and in assay [14] were 80.5 µM (active) and > 67.6 µM (inactive), respectively. For the same compound, the EC50 in assay [15] was > 67.6 µM (inactive).

For `CC(C)CN1CCN(Cc2nc(C(C)C)cs2)CC1CCO` (centres undefined), the IC50 in assay [11] was > 109 µM (inactive); in assay [12] it was > 83.3 µM (inactive).

Turning to `CC1(C)Cc2c(c(N3CCOCC3)nc3snc(N)c23)CO1`, the EC50 in assay [16] was 40.9 µM (active); in assay [17], > 120 µM (not active); in assay [18], > 120 µM (not active); in [19], 7.52 µM (active); in assay [20], 7.17 µM (active).

Consider `C[C@H]1CN([C@@H](C)CO)C(=O)c2c(c3ccccc3n2C)-c2ccccc2CO[C@@H]1CN(C)Cc1cccc2c1OCCCO2`, for which the values for the AC50 in assay [3] and in assay [5] were 4.74 µM (active) and 29.8 µM (active), respectively.

Consider `COc1ccc(C#Cc2ccc3c(c2)[C@H]2[C@H](CCN2Cc2ccncc2)[C@@H](CO)N3)cc1`, for which the AC50 in assay [1] was 1.95 µM (active); in assay [2], 62.5 µM (active); in [3] it was 2.38 µM (active); in assay [4] it was 1.16 µM (active); in assay [6] it was 1.67 µM (active).

On to `N#Cc1c(NCCCO)nc(NCc2ccccc2)c2c1CCN(Cc1ccccc1)C2`, for which the EC50 in assay [19] is 19.8 µM (active); in [20], 11.9 µM (active). The IC50 in [21] is > 50 µM (not active).

With `Cc1c(NC(=O)CSc2ccccc2F)c(=O)n(-c2ccccc2)n1C`, the IC50 in assay [7] is given as > 50 µM (not active).

For the compound `N#Cc1c(N)n(-c2ccc(O)cc2)c2nc3ccccc3nc12`, the IC50 is > 109 µM (inactive) in [11] and > 83.4 µM (inactive) in assay [12].

For `OC[C@@H]1[C@H](c2ccc(C3=CCCC3)cc2)[C@H]2CN(CCC(F)(F)F)CCCCN12`, the AC50 in assay [3] was 1.2 µM (active); in assay [5], 18.7 µM (active).
